Results on 35 molecules are retold here after patent US11021481B2, “Substituted isoindolin-1-ones and 2,3-dihydro-1h-pyrrolo[3,4-c]pyridin-1-ones as HPK1 antagonists” (Nimbus Saturn, Inc., priority 2019, dated 2021).

Chain of HPK1 (Q92918 whole entry): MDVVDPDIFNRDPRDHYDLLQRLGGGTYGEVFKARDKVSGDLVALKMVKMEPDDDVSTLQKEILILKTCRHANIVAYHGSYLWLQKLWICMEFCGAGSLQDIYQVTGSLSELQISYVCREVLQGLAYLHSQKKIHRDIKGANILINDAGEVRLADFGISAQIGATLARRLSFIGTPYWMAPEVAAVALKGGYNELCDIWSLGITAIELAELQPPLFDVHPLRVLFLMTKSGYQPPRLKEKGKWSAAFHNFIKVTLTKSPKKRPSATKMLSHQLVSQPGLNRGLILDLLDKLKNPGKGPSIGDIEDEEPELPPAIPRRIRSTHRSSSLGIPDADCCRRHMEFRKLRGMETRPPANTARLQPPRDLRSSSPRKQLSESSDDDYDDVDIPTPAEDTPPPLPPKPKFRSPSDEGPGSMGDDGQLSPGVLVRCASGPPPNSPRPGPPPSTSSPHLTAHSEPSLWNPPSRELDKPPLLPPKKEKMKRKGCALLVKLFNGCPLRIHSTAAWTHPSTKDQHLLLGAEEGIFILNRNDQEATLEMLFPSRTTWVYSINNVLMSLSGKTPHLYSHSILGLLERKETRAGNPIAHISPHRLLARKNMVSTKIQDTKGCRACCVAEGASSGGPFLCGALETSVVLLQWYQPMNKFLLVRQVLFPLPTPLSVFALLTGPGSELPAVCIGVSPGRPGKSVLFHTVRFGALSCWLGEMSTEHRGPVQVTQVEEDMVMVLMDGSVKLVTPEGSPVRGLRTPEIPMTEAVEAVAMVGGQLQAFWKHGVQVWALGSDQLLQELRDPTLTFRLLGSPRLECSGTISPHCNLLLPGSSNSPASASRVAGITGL

This experiment deals with HPK1 (Homo sapiens (Human), UniProt Q92918). Description: HPK1 biochemical enzyme assay (microfluidic mobility shift assay). The settings on record: 1.5 nM HPK1, ATP 1 mM final, 30 min preincubation, 60 min at RT, Caliper EZ Reader; read-out: HPK1 1000UMATP caliper IC50. In a few lines:
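Ten-point compound titrations (top 3 μM final) preincubated 30 min with HPK1 and substrate, then reaction started with 1 mM ATP and 1 μM substrate, 5 mM MgCl2. After 60 min at RT, reaction terminated and product measured by microfluidic mobility shift.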
For `Cc1ccn2c(-c3ccc(Nc4ccc(N5CCN(C)CC5)cn4)c4c3CNC4=O)cnc2c1` [I-64, 4-(7-methylimidazo [1,2-a]pyridin-3-yl)-7-[[5-(4-methylpiperazin-1-yl)-2-pyridyl]amino] isoindolin-1-one], the IC50 (as a rule, the concentration at which inhibition is half-maximal) was less than 0.1 µM.
As to `Cc1ccc2c(-c3ccc(Nc4ccc(N5CCN(C)CC5)cn4)c4c3CNC4=O)cnn2c1` [I-65, 7-[[5-(4-methylpiperazin-1-yl)-2-pyridyl]amino]-4-(6-methylpyrazolo [1,5-a]pyridin-3-yl)isoindolin-1-one], the IC50 is less than 0.1 µM.
In the case of `CN1CCN(c2ccc(Nc3ccc(-c4ccnc5ccn(C)c45)c4c3C(=O)NC4)nc2)CC1` [I-66, 7-[[5-(4-methylpiperazin-1-yl)-2-pyridyl]amino]-4-(1-methylpyrrolo [3,2-b]pyridin-7-yl)isoindolin-1-one], the IC50 was in the range of 0.1 to 1 µM.
Consider `CN1CCN(c2ccc(Nc3ccc(-c4c(F)cnc5c4ccn5C)c4c3C(=O)NC4)nc2)CC1` [I-67, 4-(5-fluoro-1-methyl-pyrrolo[2,3-b]pyridin-4-yl)-7-[[5-(4-methylpiperazin-1-yl)-2-pyridyl]amino] isoindolin-1-one], for which the IC50 was less than 0.1 µM.
Under `CN1CCN(c2ccc(Nc3ccc(-c4ccnc5c4CCN5)c4c3C(=O)NC4)nc2)CC1` [I-68, 4-(2,3-dihydro-1H-pyrrolo[2,3-b]pyridin-4-yl)-7-[[5-(4-methylpiperazin-1-yl)-2-pyridyl]amino] isoindolin-1-one] stands less than 0.1 µM.
As for `Cc1cccc2c(-c3ccc(Nc4ccc(N5CCN(C)CC5)cn4)c4c3CNC4=O)cnn12` [I-69, 7-[[5-(4-methylpiperazin-1-yl)-2-pyridyl]amino]-4-(7-methylpyrazolo [1,5-a]pyridin-3-yl)isoindolin-1-one], the 50% inhibitory concentration (IC50) is less than 0.1 µM.
For `Cn1ccc2c(-c3ccc(Nc4ccc(N5CC6CCC(C5)N6)cn4)c4c3CNC4=O)ccnc21` [I-70, 7-[[5-(3,8-diazabicyc1o [3,2.1]octan-3-yl)-2-pyridyl]amino]-4-(1-methylpyrrolo [2,3-b]pyridin-4-yl)isoindolin-1-one], the concentration for half-maximal inhibition (IC50) is less than 0.1 µM.
Under `CNC1CCN(c2ccc(Nc3ccc(-c4cnc5cc(C)ccn45)c4c3C(=O)NC4)nc2)CC1` [I-71, 7-[[5-[4-(methylamino)-1-piperidyl]-2-pyridyl]amino]-4-(7-methylimidazo [1,2-a]pyridin-3-yl)isoindolin-1-one] stands less than 0.1 µM.
Under `Cc1ccn2c(-c3ccc(Nc4ccc(N5CCNCC5)cn4)c4c3CNC4=O)cnc2c1` [I-72, 4-(7-methylimidazo [1,2-a]pyridin-3-yl)-7-[(5-piperazin-1-yl-2-pyridyl)amino] isoindolin-1-one] stands less than 0.1 µM.
Under `Cc1ccn2c(-c3ncc(Nc4ccc(N5CCN(C)CC5)cn4)c4c3CNC4=O)cnc2c1` [I-73, 4-(7-methylimidazo [1,2-a]pyridin-3-yl)-7-[[5-(4-methylpiperazin-1-yl)-2-pyridyl]-amino]-2,3-dihydropyrrolo [3,4-c]pyridin-1-] stands less than 0.1 µM; under `CN1CCN(c2ccc(Nc3ccc(-c4cnc5c(C#N)cccn45)c4c3C(=O)NC4)nc2)CC1` [I-74, 3-[7-[[5-(4-methylpiperazin-1-yl)-2-pyridyl]amino]-1-oxo-isoindolin-4-yl]imidazo[1,2-a]pyridine-8-carbonitrile], less than 0.1 µM.
Regarding `Cn1ccc2c(-c3ccc(Nc4ccc(N5CCC(O)CC5)cn4)c4c3CNC4=O)ccnc21` [I-75, 7-[[5-(4-hydroxy-1-piperidyl)-2-pyridyl]amino]-4-(1-methylpyrrolo [2,3-b]pyridin-4-yl)isoindolin-1-one], the half-maximal inhibitory concentration (IC50) was less than 0.1 µM.
Under `CN1CCN(c2ccc(Nc3ccc(-c4cnc5cnccn45)c4c3C(=O)NC4)nc2)CC1` [I-76, 4-imidazo[1,2-a]pyrazin-3-yl-7-[[5-(4-methylpiperazin-1-yl)-2-pyridyl]amino] isoindolin-1-one] stands less than 0.1 µM; under `Cc1cc(-c2ccc(Nc3ccc(N4CCN(C)CC4)cn3)c3c2CNC3=O)c2cc[nH]c2n1` [I-77, 7-[[5-(4-methylpiperazin-1-yl)-2-pyridyl]amino]-4-(6-methyl-1H-pyrrolo[2,3-b]pyridin-4-yl)isoindolin-1-one], 0.1 to 1 µM; under `Cc1cnc2[nH]ccc2c1-c1ccc(Nc2ccc(N3CCN(C)CC3)cn2)c2c1CNC2=O` [I-78, 7-[[5-(4-methylpiperazin-1-yl)-2-pyridyl]amino]-4-(5-methyl-1H-pyrrolo[2,3-b]pyridin-4-yl)isoindolin-1-one], 0.1 to 1 µM.
The figure for `Cn1ccc2c(-c3ccc(Nc4ccc(N5CCCNCC5)cn4)c4c3CNC4=O)ccnc21` [I-79, 7-[[5-(1,4-diazepan-1-yl)-2-pyridyl]amino]-4-(1-methylpyrrolo [2,3-b]pyridin-4-yl)isoindolin-1-one] is less than 0.1 µM; for `O=C1NCc2c(-c3cnc4n3CCCC4)ccc(Nc3ccc(N4CCNCC4)cn3)c21` [I-80, 7-[(5-piperazin-1-yl-2-pyridyl)amino]-4-(5,6,7,8-tetrahydro-imidazo[1,2-a]pyridin-3-yl)isoindolin-1-one] it is less than 0.1 µM.
For `CN1CCN(c2ccc(Nc3ccc(-c4ccnc5cc[nH]c45)c4c3C(=O)NC4)nc2)CC1` [I-81, 7-[[5-(4-methylpiperazin-1-yl)-2-pyridyl]amino]-4-(1H-pyrrolo[3,2-b]pyridin-7-yl)isoindolin-1-one], the IC50 is less than 0.1 µM.
Consider `O=C1NCc2c(-c3cnc4cccnn34)ccc(Nc3ccc(N4CCNCC4)cn3)c21` [I-82, 4-imidazo[1,2-b]pyridazin-3-yl-7-[(5-piperazin-1-yl-2-pyridyl)amino] isoindolin-1-one], for which the IC50 was less than 0.1 µM.
With `CN1CCN(c2ccc(Nc3ccc(-c4ncnc5c4ccn5C)c4c3C(=O)NC4)nc2)CC1` [I-83, 7-[[5-(4-methylpiperazin-1-yl)-2-pyridyl]amino]-4-(7-methylpyrrolo [2,3-d]pyrimidin-4-yl)isoindolin-1-one], the IC50 was less than 0.1 µM.
Consider `Cc1cccc2c(-c3ccc(Nc4ccc(N5CCNCC5)cn4)c4c3CNC4=O)cnn12` [I-84, 4-(7-methylpyrazolo [1,5-a]pyridin-3-yl)-7-[(5-piperazin-1-yl-2-pyridyl)amino] isoindolin-1-one], for which the IC50 was less than 0.1 µM.
The figure for `CN1CCN(c2ccc(Nc3ccc(-c4nnc5ccccn45)c4c3C(=O)NC4)nc2)CC1` [I-85, 7-[[5-(4-methylpiperazin-1-yl)-2-pyridyl]amino]-4-([1,2,4]triazolo [4,3-a]pyridin-3-yl)isoindolin-1-one] is less than 0.1 µM; for `Cc1ccc2ncc(-c3ccc(Nc4ccc(N5CCNCC5)cn4)c4c3CNC4=O)n2c1` [I-86, 4-(6-methylimidazo [1,2-a]pyridin-3-yl)-7-[(5-piperazin-1-yl-2-pyridyl)amino] isoindolin-1-one] it is less than 0.1 µM.
For the molecule `O=C1NCc2c(-c3cnc4ncccn34)ccc(Nc3ccc(N4CCNCC4)cn3)c21` [I-87, 4-imidazo[1,2-a]pyrimidin-3-yl-7-[(5-piperazin-1-yl-2-pyridyl)amino] isoindolin-1-one], the IC50 is less than 0.1 µM.
The figure for `O=C1NCc2c(-c3cnc4c(F)cccn34)ccc(Nc3ccc(N4CCNCC4)cn3)c21` [I-88, 4-(8-fluoroimidazo [1,2-a]pyridin-3-yl)-7-[(5-piperazin-1-yl-2-pyridyl)amino] isoindolin-1-one] is less than 0.1 µM.
Consider `Cc1ccc2c(-c3ccc(Nc4ccc(N5CCNCC5)cn4)c4c3CNC4=O)cnn2c1` [I-89, 4-(6-methylpyrazolo[1,5-a]pyridin-3-yl)-7-[(5-piperazin-1-yl-2-pyridyl)amino] isoindolin-1-one], for which the IC50 was less than 0.1 µM.
`O=C1NCc2c(-c3cnn4ccccc34)ccc(Nc3ccc(N4CCNCC4)cn3)c21` [I-90, 7-[(5-piperazin-1-yl-2-pyridyl)amino]-4-pyrazolo[1,5-a]pyridin-3-yl-isoindolin-1-one]: the IC50 is less than 0.1 µM.
Turning to `CNC1CCN(c2ccc(Nc3ccc(-c4cnc5cccnn45)c4c3C(=O)NC4)nc2)CC1` [I-91, 4-imidazo[1,2-b]pyridazin-3-yl-7-[[5-[4-(methylamino)-1-piperidyl]-2-pyridyl]amino] isoindolin-1-one], the IC50 was less than 0.1 µM.
Under `CN1CCN(c2ccc(Nc3ccc(-c4cnc5n4CCNC5)c4c3C(=O)NC4)nc2)CC1` [I-92] stands less than 0.1 µM; under `CN1CCc2c(-c3ccc(Nc4ccc(N5CCNCC5)cn4)c4c3CNC4=O)ccnc21` [I-93, 4-(1-methyl-2,3-dihydropyrrolo [2,3-b]pyridin-4-yl)-7-[(5-piperazin-1-yl-2-pyridyl)amino] isoindolin-1-one], less than 0.1 µM.
The figure for `Cn1ccc2c(-c3ccc(Nc4ccc(N5CCC[C@H](N)C5)cn4)c4c3CNC4=O)ccnc21` [I-94, 7-[[5-[(3S)-3-amino-1-piperipyl]-2-pyridyl]amino]-4-(l-methylpyrrolo [2,3-b]pyridin-4-yl)isoindolin-1-one] is less than 0.1 µM; for `Cn1ccc2c(-c3ccc(Nc4ccc(N5CCC[C@@H](N)C5)cn4)c4c3CNC4=O)ccnc21` [I-95, 7-[[5-[(3R)-3-amino-1-piperipyl]-2-pyridyl]amino]-4-(1-methylpyrrolo [2,3-b]pyridin-4-yl)isoindolin-1-one] it is less than 0.1 µM; for `Cn1ccc2c(-c3ccc(Nc4ccc(C5CCNCC5)cn4)c4c3CNC4=O)ccnc21` [I-96, 4-(1-methylpyrrolo [2,3-b]pyridin-4-yl)-7-[[5-(4-piperidyl)-2-pyridyl]amino] isoindolin-1-one] it is less than 0.1 µM.
As to `CN[C@H]1CCCN(c2ccc(Nc3ccc(-c4ccnc5c4ccn5C)c4c3C(=O)NC4)nc2)C1` [I-97, 7-[[5-[(3S)-3-(methylamino)-1-piperidyl]-2-pyridyl]amino]-4-(1-methylpyrrolo [2,3-b]pyridin-4-yl)isoindolin-1-one], the IC50 is less than 0.1 µM.
The figure for `Cc1cn(C)c2nccc(-c3ccc(Nc4ccc(N5CCNCC5)cn4)c4c3CNC4=O)c12` [I-98] is less than 0.1 µM.
